{"source": "paper PMC8408562", "about": "“Spatially restricted substrate-binding site of cortisol-synthesizing CYP11B1 limits multiple hydroxylations and hinders aldosterone synthesis” (Current Research in Structural Biology, 2021)", "key": {"human CYP11B1 wild type [1]": {"molecular_target": "T1, human CYP11B1 wild type (Homo sapiens, UniProt P15538)", "T1 sequence (P15538 28-503 limits assumed)": "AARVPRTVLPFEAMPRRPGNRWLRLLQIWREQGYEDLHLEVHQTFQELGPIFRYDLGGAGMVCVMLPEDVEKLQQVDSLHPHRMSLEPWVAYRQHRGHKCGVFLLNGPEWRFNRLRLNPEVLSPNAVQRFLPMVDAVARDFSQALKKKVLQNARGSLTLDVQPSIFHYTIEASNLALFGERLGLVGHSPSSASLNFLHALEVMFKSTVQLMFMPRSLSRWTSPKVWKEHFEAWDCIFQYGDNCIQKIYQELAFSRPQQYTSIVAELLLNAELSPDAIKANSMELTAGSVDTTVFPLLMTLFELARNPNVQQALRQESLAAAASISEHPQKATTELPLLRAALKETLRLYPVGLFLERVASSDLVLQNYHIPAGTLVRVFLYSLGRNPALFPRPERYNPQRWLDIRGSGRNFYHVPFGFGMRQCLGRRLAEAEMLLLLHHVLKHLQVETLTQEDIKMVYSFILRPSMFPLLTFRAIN", "assay": "Steady-state kinetics in reconstituted system (adrenodoxin reductase, adrenodoxin, NADPH), LC-MS/MS, wild type", "format": "biochemical"}, "[2]": {"molecular_target": "T2, human CYP11B1 mutant (W49R, L50N, L53N, W56R, L244N, W247N) (Homo sapiens, UniProt P15538, L244N/L50N/L53N/W247N/W49R/W56R)", "T2 sequence (P15538 28-503 W49R/L50N/L53N/W56R/L244N/W247N limits assumed)": "T1 sequence (P15538 28-503 limits assumed) with W22R, L23N, L26N, W29R, L217N, W220N", "assay": "Steady-state kinetics in reconstituted system (adrenodoxin reductase, adrenodoxin, NADPH), LC-MS/MS, mutant", "format": "biochemical", "conditions": "for Production of 18-hydroxy cortisol / 18-hydroxy corticosterone (11β,18-dihydroxylation): from DOF and DOC, respectively"}, "CYP11B2 Wild type": {"test_system": "CYP11B2 Wild type", "set-up": "method as in ref [1] (a number printed in a supplementary file, which may have a reference list of its own: not looked up in the article's list)", "conditions": "calculated from kcat values with substrate DOC, ref [1]; cited from earlier work"}, "[3]": {"test_system": "CYP11B1 Wild type / CYP11B2 G288S", "set-up": "method as in ref [2, 3] (a number printed in a supplementary file, which may have a reference list of its own: not looked up in the article's list)", "conditions": "group (ii); steroids produced from DOC, estimated against wild type controls; ref [2, 3]; cited from earlier work"}, "[4]": {"test_system": "CYP11B1 S288G / CYP11B2 R181W/V386A", "set-up": "method as in ref [2, 3] (a number printed in a supplementary file, which may have a reference list of its own: not looked up in the article's list)", "conditions": "group (iii); steroids produced from DOC, estimated against wild type controls; ref [2, 3]; cited from earlier work"}, "[5]": {"test_system": "CYP11B1 S288G/V320A / CYP11B2 Wild type", "set-up": "method as in ref [2, 3] (a number printed in a supplementary file, which may have a reference list of its own: not looked up in the article's list)", "conditions": "group (iv); steroids produced from DOC, estimated against wild type controls; ref [2, 3]; cited from earlier work"}, "[6]": {"molecular_target": "T2, human CYP11B1 mutant (W49R, L50N, L53N, W56R, L244N, W247N)", "assay": "Spectroscopic titration of ferric enzyme (difference spectra), mutant", "conditions": "direct titration of ferric form, mean ± SE, n=3", "experimental": "(§1) Affinities of the two enzymes for the substrates DOC or DOF and other ligands were determined by titration assays using the ferric forms.\nTwo forms, a wild type and a mutant, of recombinant human CYP11B1 were expressed as 486-amino acid residue polypeptide (Fig. S2).\nSpectroscopic studies were carried out at room temperature using a Jasco UV–visible spectrophotometer V-530. Purified enzymes were diluted to 1.0 ​μM for the wild type and 0.8–1.2 ​μM for the mutant with the buffer consisting of 50 ​mM potassium phosphate (pH 7.4), 150 ​mM NaCl, 20% (v/v) glycerol, and 0.05% (v/v) Tween 20. Substrate DOC (Sigma) at 400 ​μM, sodium dithionite, and CO were added sequentially, and absolute spectra were recorded after each step. […] The data obtained with 5 ​mM Cymal-5 (Anatrace) in place of the substrate were also included in Fig. S4. Dissociation constants for steroids and ligands were determined from spectral changes caused by titration with increasing concentrations of them. Data were analyzed using non-linear regression (Prism 8, GraphPad Software) to calculate Kd values. […] The dissociation constants were calculated from the apparent values by using the Kd values for DOC as the inhibitory constants. […] The steroids and ligands used for spectroscopic analyses were dissolved in dimethyl sulfoxide."}, "human CYP11B1 wild type [7]": {"molecular_target": "T1, human CYP11B1 wild type", "assay": "Spectroscopic titration of ferric enzyme (difference spectra), wild type", "conditions": "for Spectral shift: one column for both wild type and mutant", "experimental": "as §1\nSpectroscopic studies were carried out at room temperature using a Jasco UV–visible spectrophotometer V-530. Purified enzymes were diluted to 1.0 ​μM for the wild type and 0.8–1.2 ​μM for the mutant with the buffer consisting of 50 ​mM potassium phosphate (pH 7.4), 150 ​mM NaCl, 20% (v/v) glycerol, and 0.05% (v/v) Tween 20. […] Dissociation constants for steroids and ligands were determined from spectral changes caused by titration with increasing concentrations of them. Data were analyzed using non-linear regression (Prism 8, GraphPad Software) to calculate Kd values. […] The dissociation constants were calculated from the apparent values by using the Kd values for DOC as the inhibitory constants. […] The steroids and ligands used for spectroscopic analyses were dissolved in dimethyl sulfoxide."}, "[8]": {"conditions": "CYP11B1 wild type (this study), calculated from kcat values with substrate DOC"}, "[9]": {"conditions": "CYP11B1 mutant, calculated from kcat values with substrate DOC"}}, "note": "Residue numbers refer to the chain shown, from its start. “And” between values parts separate entries of the source, which are not always exact repeats. Equal values may be shown once. Read-outs that look alike come from different tables or passages of the source.", "data": [{"smiles": "C[C@]12CC[C@H]3[C@@H](CCC4=CC(=O)CC[C@@]43C)[C@@H]1CC[C@@H]2C(=O)CO", "note": "[DOC, 11-deoxycorticosterone]", "values": [{"measurement": "kcat, 11β,18-diOHase,18-oxidase", "setting": "human CYP11B1 wild type [1]", "result": 0, "unit": "s⁻¹"}, {"measurement": "kcat, 11β,18-dihydroxylation", "setting": "human CYP11B1 wild type [1]", "result": 0.0108, "unit": "s⁻¹"}, {"measurement": "kcat, 11β-hydroxylation", "setting": "human CYP11B1 wild type [1]", "result": 2.683, "unit": "s⁻¹"}, {"measurement": "kcat, 18-hydroxylation", "setting": "human CYP11B1 wild type [1]", "result": 0.132, "unit": "s⁻¹"}, {"measurement": "Relative activity (molar product ratio), 11b,18-diOHase", "setting": "human CYP11B1 wild type [1]; [8]", "result": 0.4, "unit": "%"}, {"measurement": "Relative activity (molar product ratio), 11b,18-diOHase,18-oxidase", "setting": "human CYP11B1 wild type [1]; [8]", "result": 0, "unit": "%"}, {"measurement": "Relative activity (molar product ratio), 11b-OHase", "setting": "human CYP11B1 wild type [1]; [8]", "result": 94.9, "unit": "%"}, {"measurement": "Relative activity (molar product ratio), 18-OHase", "setting": "human CYP11B1 wild type [1]; [8]", "result": 4.7, "unit": "%"}, {"measurement": "Production of aldosterone", "setting": "human CYP11B1 wild type [1]; Wild type, from DOC", "result": "not produced"}, {"measurement": "kcat, 11β,18-diOHase", "setting": "[2]", "result": 0, "unit": "s⁻¹"}, {"measurement": "kcat, 11β,18-diOHase,18-oxidase", "setting": "[2]", "result": 0, "unit": "s⁻¹"}, {"measurement": "kcat, 11β-hydroxylation", "setting": "[2]", "result": 2.212, "unit": "s⁻¹"}, {"measurement": "Relative activity (molar product ratio), 11b,18-diOHase", "setting": "[2]; [9]", "result": 0, "unit": "%"}, {"measurement": "Relative activity (molar product ratio), 11b,18-diOHase,18-oxidase", "setting": "[2]; [9]", "result": 0, "unit": "%"}, {"measurement": "Relative activity (molar product ratio), 11b-OHase", "setting": "[2]; [9]", "result": 95.8, "unit": "%"}, {"measurement": "Relative activity (molar product ratio), 18-OHase", "setting": "[2]; [9]", "result": 4.2, "unit": "%"}, {"measurement": "Production of aldosterone", "setting": "[2]; Mutant, from DOC", "result": "not produced"}, {"measurement": "Production of 18-hydroxy cortisol / 18-hydroxy corticosterone (11β,18-dihydroxylation)", "setting": "[2]; Mutant", "result": "did not produce"}, {"measurement": "Relative activity (molar product ratio), 11b,18-diOHase", "setting": "CYP11B2 Wild type", "result": 2.7, "unit": "%"}, {"measurement": "Relative activity (molar product ratio), 11b,18-diOHase,18-oxidase", "setting": "CYP11B2 Wild type", "result": 0.5, "unit": "%"}, {"measurement": "Relative activity (molar product ratio), 11b-OHase", "setting": "CYP11B2 Wild type", "result": 92.6, "unit": "%"}, {"measurement": "Relative activity (molar product ratio), 18-OHase", "setting": "CYP11B2 Wild type", "result": 4.2, "unit": "%"}, {"measurement": "Activity class, 11b,18-diOHase", "setting": "[3]", "result": "+ (Percentages 0, >0 and ≤1, >1 and ≤10, and >10 are indicated by (-), (+), (++), and (+++), respectively)"}, {"measurement": "Activity class, 11b,18-diOHase,18-oxidase", "setting": "[3]", "result": "- (Percentages 0, >0 and ≤1, >1 and ≤10, and >10 are indicated by (-), (+), (++), and (+++), respectively)"}, {"measurement": "Activity class, 11b-OHase", "setting": "[3]", "result": "+++ (Percentages 0, >0 and ≤1, >1 and ≤10, and >10 are indicated by (-), (+), (++), and (+++), respectively)"}, {"measurement": "Activity class, 11b,18-diOHase", "setting": "[4]", "result": "++ (Percentages 0, >0 and ≤1, >1 and ≤10, and >10 are indicated by (-), (+), (++), and (+++), respectively)"}, {"measurement": "Activity class, 11b,18-diOHase,18-oxidase", "setting": "[4]", "result": "- (Percentages 0, >0 and ≤1, >1 and ≤10, and >10 are indicated by (-), (+), (++), and (+++), respectively)"}, {"measurement": "Activity class, 11b-OHase", "setting": "[4]", "result": "+++ (Percentages 0, >0 and ≤1, >1 and ≤10, and >10 are indicated by (-), (+), (++), and (+++), respectively)"}, {"measurement": "Activity class, 11b,18-diOHase", "setting": "[5]", "result": "++ (Percentages 0, >0 and ≤1, >1 and ≤10, and >10 are indicated by (-), (+), (++), and (+++), respectively)"}, {"measurement": "Activity class, 11b,18-diOHase,18-oxidase", "setting": "[5]", "result": "+ (Percentages 0, >0 and ≤1, >1 and ≤10, and >10 are indicated by (-), (+), (++), and (+++), respectively)"}, {"measurement": "Activity class, 11b-OHase", "setting": "[5]", "result": "+++ (Percentages 0, >0 and ≤1, >1 and ≤10, and >10 are indicated by (-), (+), (++), and (+++), respectively)"}, {"measurement": "Kd", "setting": "[6]", "result": "3.8 µM and 3.81 µM"}, {"measurement": "Kd", "setting": "human CYP11B1 wild type [7]", "result": 15.1, "unit": "µM"}, {"measurement": "Spectral shift", "setting": "human CYP11B1 wild type [7]", "result": "Type I"}]}, {"smiles": "C[C@]12CCC(=O)C=C1CC[C@@H]1[C@@H]2CC[C@@]2(C)[C@H]1CC[C@]2(O)C(=O)CO", "note": "[DOF, 11-deoxycortisol]", "values": [{"measurement": "kcat, 11β-hydroxylation", "setting": "human CYP11B1 wild type [1]; Wild type, DOF to cortisol, DOC to corticosterone", "result": 2.157, "unit": "s⁻¹"}, {"measurement": "kcat, 11β-hydroxylation", "setting": "[2]; Mutant, DOF to cortisol, DOC to corticosterone", "result": 1.51, "unit": "s⁻¹"}, {"measurement": "Production of 18-hydroxy cortisol / 18-hydroxy corticosterone (11β,18-dihydroxylation)", "setting": "[2]; Mutant", "result": "did not produce"}, {"measurement": "kcat, 11β,18-diOHase", "setting": "[2]; Mutant, product 18OH-F (from DOF) or 18OH-B (from DOC)", "result": 0, "unit": "s⁻¹"}, {"measurement": "Kd", "setting": "[6]", "result": "3.3 µM and 3.31 µM"}, {"measurement": "Kd", "setting": "human CYP11B1 wild type [7]", "result": 21.2, "unit": "µM"}, {"measurement": "Spectral shift", "setting": "human CYP11B1 wild type [7]", "result": "Type I"}]}]}
